Laboratory results: ChEMBL document CHEMBL3507680, “University of Dundee, Gates Library screen for HepG2 cell viability”

Assay: Human HepG2 cell viability assay in 384 well format
Format: toxicity, cell-based
Design: dose 125 nL, time 70.5 hour; concentration not given beside the values
Details: HepG2 cells, read-out: Inhibition

Row | SMILES | cytotoxicity at 70.5 h [%]
1 | Cc1n[nH]c(C2CN(C(=O)c3coc(Br)c3)CCO2)n1 (stereo unspecified) | -10.2
2 | Cc1n[nH]c(C2CN(C(=O)c3ccc4c(c3)COC4)CCO2)n1 (stereo unspecified) | -1.57
3 | O=C(CNC(=O)c1c(F)cccc1Cl)Nc1ccc(F)cn1 | -12.6
4 | Cc1n[nH]c(C2CN(C(=O)c3csnn3)CCO2)n1 (stereo unspecified) | -11.9
5 | Cc1csc(NC(=O)c2cccnc2N2CCOCC2)n1 | 18.7
6 | CNC(=O)CS(=O)(=O)Cc1ccc(OC)c(F)c1 | -11.9
7 | CN(C)C(=O)Cc1nc(CN2CCCC2Cn2cncn2)cs1 (stereo unspecified) | -10.9
8 | Cc1nnc(CN(C)C2CCN(CCc3cccs3)C2)n1C (stereo unspecified) | 15.2
9 | Cc1cccc(C(=O)N2CCN(c3ccccc3F)CC2)n1 | -7.27
10 | CN(CC(=O)NC1CC1)S(=O)(=O)c1ccc(F)cc1Cl | -3.95
11 | CCCc1nnc(NC(=O)NC2CCOc3ccccc32)s1 (stereo unspecified) | -4.65
12 | CC(=O)c1c(F)cccc1N1CCC(C(N)=O)CC1 | -1.92
13 | CC(=O)N1CCN(C(=O)CN2CCN(c3cccc(C)c3)CC2)CC1 | -6.8
14 | CCc1noc(C)c1C(=O)Nc1cnn(CC(=O)NC2CCCC2)c1 | -1.44
15 | COc1ccc(C(=O)Nc2c(C)nn(C(C)C)c2C)cc1 | 23.1
16 | CCN(CC)C(=O)CCNC(=O)c1ccccc1N1CCOCC1 | 23.2
17 | CCCNC(=O)CCNC(=O)c1ccccc1N1CCOCC1 | -4.62
18 | Cc1cccc(CNCCOc2ccc(S(C)(=O)=O)cc2)c1 | -0.853
19 | CCN(CC)c1ccc(NS(=O)(=O)c2cnn(CC)c2)cn1 | 1.09
20 | Cc1noc(C)c1CNC(=O)N1CCC(OCC2CC2)CC1 | 25.4
21 | Cc1ccc(OCC(=O)NCc2sccc2C)nc1 | -3.68
22 | CCN(C1CCN(c2cccc(F)c2C(C)=O)CC1)S(C)(=O)=O | -5.28

Row | SMILES | cytotoxicity at 70.5 h [%]
23 | CN(Cc1nnc(C2CC2)n1C)C1CCN(CCc2ccccc2)C1 (stereo unspecified) | -3.03
24 | CCCN1CCCN(c2ncccc2C(=O)N2CCCCC2)CC1 | -2.98
25 | Cc1cc(C)c(C(=O)Nc2cccc(CN3CCC(CO)CC3)c2)o1 | 4.26
26 | COC(=O)C(C)(C)NC(=O)C1CC(=O)N(CC(C)C)C1 (stereo unspecified) | -0.314
27 | CCN1CC(C(=O)NC(C)(C)C(=O)OC)CC1=O (stereo unspecified) | 3.17
28 | N#Cc1ncn(CCC(=O)Nc2cc(Cl)ccc2Cl)n1 | -4.2
29 | COc1ccc(CC(=O)NCCNS(=O)(=O)c2ccc(C)cc2)cc1 | 2.16
30 | COc1ccc(OCCN(C)C(=O)c2ccc(OC)cc2O)cc1 | -9.58
31 | CC(c1cccnc1)N1CCN(CCc2ccccn2)CC1 (stereo unspecified) | -0.575
32 | c1ccn2c(SCC3CN=C(N4CCOCC4)S3)ncc2c1 (stereo unspecified) | 19.3
33 | COc1ccc(CNC(C)c2cn[nH]c2C)cc1 (stereo unspecified) | 14.1
34 | CC(C)c1nc(C2CCCN2C(=O)CN(C)Cc2ccccc2)no1 (stereo unspecified) | 11.3
35 | Cc1n[nH]c(SCC(=O)NC(c2ccncc2)C(C)C)n1 (stereo unspecified) | 21
36 | CC(C)c1cccc(CSc2nnc(Cn3cncn3)o2)n1 | -7.35
37 | CCN(Cc1ccoc1)C(C(N)=O)c1cccc(Br)c1 (stereo unspecified) | -7.25
38 | CNC(=O)CCN1CCCCCC1c1ccc(C)o1 (stereo unspecified) | 13.3
39 | CCN(C(C)=O)c1nc(CN2CCN(c3nccs3)CC2)cs1 | 23.5
40 | CC(C)c1nnc(NC(=O)CCc2cc(F)ccc2F)[nH]1 | -16.3
41 | Cc1cn2nc(N3CCCC3C(=O)N3CCOCC3)sc2n1 (stereo unspecified) | -15.3
42 | Cc1nnc(N2CCNCC2)c(C(N)=O)c1C | -16.9
43 | O=C(NCc1cccc(F)c1)Nc1ccn(CCN2CCOCC2)n1 | -4.92
44 | O=C(NCc1ccccc1F)Nc1ccn(CCN2CCOCC2)n1 | -15.3

Row | SMILES | cytotoxicity at 70.5 h [%]
45 | Cc1ccc(C2CCCCCN2CCNS(C)(=O)=O)o1 (stereo unspecified) | -5.05
46 | CC(C)c1cc(CNC(=O)Nc2cc(F)cc(N3CCCC3)c2)on1 | 17.1
47 | CCc1cc(CNC(=O)Nc2cc(F)cc(N3CCCC3)c2)on1 | -11.5
48 | CN(Cc1ccc([S+](C)[O-])cc1)c1cncc(Cl)n1 (stereo unspecified) | -15.4
49 | CCCc1cc(C(=O)Nc2nc(SC)ns2)[nH]n1 | -4.32
50 | CCOc1cccc(NC(=O)Cc2cccc(O)c2)n1 | 16.2
51 | CC(C)(C)OC(=O)NC1CCC(NC(=O)c2ccc[nH]2)CC1 (stereo unspecified) | -6.62
52 | O=C1CCc2cc(S(=O)(=O)NC(=O)c3ccc4c(c3)CCO4)ccc2N1 | -1.87
53 | O=c1[nH]nc2n1CCN(S(=O)(=O)c1ccccc1Cl)C2 | -7.03
54 | CCCc1nnnn1Cc1cn2c(C)cccc2n1 | -2.3
55 | CNC(=O)COc1ccccc1CNCc1c(C)noc1C | -3.67
56 | Cc1cc(CNC(=O)CC2CN(C(=O)OC(C)(C)C)C2)ccc1F | -9.79
57 | CN(Cc1ccc([S+](C)[O-])cc1)c1ccc(Br)cn1 (stereo unspecified) | -0.515
58 | Cc1ccc(C2CCCCCN2CCCS(C)(=O)=O)o1 (stereo unspecified) | -10.5
59 | CCOc1cccc(CCNC(=O)Cc2ccccc2O)n1 | -14.9
60 | O=C(CN1CCC2(CCCCC2)C1)NCC(F)(F)F | -9.38
61 | CSc1ccc(NC(=O)COCc2ccccc2)nc1 | 15
62 | CCCn1nnnc1CSCc1cn2c(C)cccc2n1 | -12.9
63 | CCCC(C)(C)NC(=O)c1cnc(CC)s1 | -1.12
64 | CCc1ncc(C(=O)NC(C)(C)C(=O)OC)s1 | 12.2
65 | Cn1nnnc1SCCC(=O)NCC(C)(C)c1ccccc1F | 19.1
66 | CC(C)(CNC(=O)CSc1nnnn1C1CC1)c1ccccc1F | -7.67

Row | SMILES | cytotoxicity at 70.5 h [%]
67 | COCCCSc1ccc(NC(=O)Nc2cn[nH]c2)cc1 | 18.2
68 | N#Cc1ccc(N2CCN(c3cnccn3)CC2)cc1C(F)(F)F | 24.7
69 | Cc1nc2n(n1)CCN(S(=O)(=O)c1ccc(OC(F)(F)F)cc1)C2 | -1.32
70 | Cc1nc2n(n1)CCN(S(=O)(=O)c1ccc(Cl)cc1)C2 | -3.28
71 | Cn1cc(S(=O)(=O)NCCc2nnc3ccccn23)cn1 | -4.25
72 | O=C(Nc1cc(Cl)ccc1Cl)NC1CCN(C2CCOC2)CC1 (stereo unspecified) | 25.3
73 | O=C(c1ccc[nH]1)N(Cc1ccc(O)cc1)CC1CC1 | 20.8
74 | CN(C)C1CN(C(=O)Nc2cccc(OC(F)F)c2)C1 | 17.6
75 | CN(C)c1cccc(CNC(=O)Nc2ccc3[nH]nnc3c2)n1 | -2.68
76 | CC(C)Cn1cnc(S(=O)(=O)NCCc2nnc3ccccn23)c1 | 15.7
77 | CS(=O)(=O)N1CCC(OCCCc2ccccc2)C1 (stereo unspecified) | 3.28
78 | COCCN(Cc1ccccc1)Cc1nc(-c2ccsc2)no1 | -3.79
79 | Cc1cnn(CC2CCCCN2c2ncnc3ccccc23)c1 (stereo unspecified) | -5.59
80 | Cc1nc(CNC(C(=O)N2CCOCC2)c2ccccc2)cs1 (stereo unspecified) | -6.01
81 | Cc1cnn(CC2CCCN2c2ncnc3ccccc23)c1 (stereo unspecified) | 9.14
82 | Cc1cccc(OCCNC(=O)C(C)S(=O)(=O)c2ccccn2)c1 (stereo unspecified) | -2.85
83 | CN(C)S(=O)(=O)c1ccc(CNC(=O)C2CC2)cc1 | 1.13
84 | O=C(CN1CCS(=O)(=O)CC1)NCc1cccc(Br)c1 | -2.1
85 | Cn1cnnc1CNC(=O)C1CCCN(Cc2ccccc2)C1 (stereo unspecified) | 0.292
86 | N#CC1(NC(=O)Cn2nnc(-c3cc4ccccc4o3)n2)CCCC1 | -11.5
